The values that follow come from US12060336B1, “(2E)-4-[(4-chlorophenyl)amino]-N-phenyl-2-(phenylimino)-1,3,5-dioxazepine-7-carboxamide as an eco-friendly insecticidal agent against Spodoptera littoralis (boisd.)” (King Faisal University, priority 2023, dated 2024).

The structures appear in SMILES notation. ≈ marks a conversion by molar mass, not a printed value. Read-outs that look alike come from different tables or passages of the source.

Series [1] has as its system Spodoptera littoralis larvae. Kind of series: Insecticidal leaf dip bioassay screening. Particulars: for Toxicity index %: 72 hours, fenoxycarb's LC50/compound's LC50 * 100; for LC50: Spodoptera littoralis, foliar, 72 h.
Protocol: Five concentrations (200, 100, 50, 25, 12.5 ppm) were designed for this synthetic compound and the reference fenoxycarb's compound as the dynamic ingredients based on ppm via diluting the commercial formulation.
In this experiment, the synthetic compound was tested for its insecticidal bioactivity using the industry-standard leaf dip bioassay techniques. Preparation of the compound stocks to create 1000 ppm, 0.1 g of compounds 2 were dissolved in five mL of Dimethyl formamide & combined with 5 mL of distilled water. Until usage, the stocks were kept in a refrigerator. The target substance test results were noted & the concentrations needed to destroy 50% (LC50) of S. littoralis larvae were calculated. The target compound was employed in five different concentrations, & 0.1% Tween 80 was employed as a surfactant. Castor bean leaf discs (nine centimeters in diameter) were dipped in the concentration under test for ten seconds, then fed to 2th & 4th larvae, which were roughly the same size and housed in glass jars (five pound). Each action carried out 3 times with ten larvae each. The mortality equalized via Abbott's formula. Calculations of mortality setback line were measurably rummage via probity analysis. Harmfulness index was strongminded via sun equations. The mortality results of larval insect were estimated through employing probit analysis through a statistics (LDP-line) equation which estimate the LC50 values with 95% fiducially limits of lower, upper confidence limit and slope.
A further series deals with aquatic insects. Particulars: cited from earlier work.
The mark [2] stands for this setting: read-out: LC50 (mg/L) at 95%, 2nd instar larvae, laboratory strain S. littoralis, after 72 hours of treatment.
Where [3] appears, read: read-out: LC50 (mg/L) at 95%, 4th instar larvae, laboratory strain S. littoralis, after 72 hours of treatment.

`O=C(Nc1ccccc1)C1=CN=C(Nc2ccc(Cl)cc2)O/C(=N/c2ccccc2)O1` [Compound 2, (2E)-4-[(4-chlorophenyl)amino]-N-phenyl-2-(phenylimino)-1,3,5-dioxazepine-7-carboxamide]: the “activity against Spodoptera littoralis” value in series [1] (2nd and 4th instar larvae, FIGS. 1A-1B, compared with Fenoxycarb) is given as “active against Spodoptera littoralis”. Besides, the Toxicity index % was found to be 10.31% in series [1] (2nd instar larvae) and 23.54% in series [1] (4th instar larvae). Also, the LC50 in series [1] (setting [2]) was 57.6 mg/L (≈ 133 µM); in series [1] (setting [3]) it was roughly 254 mg/L (≈ 588 µM).
With `CCOC(=O)NCCOc1ccc(Oc2ccccc2)cc1` [fenoxycarb, reference compound], the Toxicity index % in series [1] (2nd instar larvae) and in series [1] (4th instar larvae) was 100% throughout. The LC50 in series [1] (setting [2]) came to 5.94 mg/L (≈ 19.7 µM); in series [1] (setting [3]), 59.9 mg/L (≈ 199 µM).
On to `CCc1ccc(C(=O)NN(C(=O)c2cc(C)cc(C)c2)C(C)(C)C)cc1` [tebufenozide], for which the LC50 with aquatic insects was 100 to 1000 µg/mL.
